Key:
[1] = tested on: SIV integrase E92Q (SIV IN RTV pseudovirus); assay type: cell-based; details: E92Q SIV integrase mutant
[2] = tested on: SIV integrase G118R/A122T (SIV IN RTV pseudovirus); assay type: cell-based; details: G118R/A122T SIV integrase mutant
[3] = ECLAIR trial; cited from earlier work
[4] = tested on: SIV integrase G140R (SIV IN RTV pseudovirus); assay: organism not typed; assay type: cell-based; details: HEK293
[5] = in vivo; details: Indian, rhesus monkey
Procedure: (§1) CAB LA (200 mg/mL injectable stock aqueous suspension) was given at a dose of 50 mg kg^−1 under anesthesia by intramuscular injection into the quadriceps. Volumes greater than 1.0 mL were divided into two injection sites.

[6] = tested on: SIV integrase I250V (SIV IN RTV pseudovirus); assay: organism not typed; assay type: cell-based
[7] = tested on: RT-SHIV; assay: Plasma SHIV RNA (RT-PCR) in RT-SHIV-infected macaques treated with CAB LA
Procedure: as §1

Structure (SMILES): C[C@H]1CO[C@@H]2Cn3cc(C(=O)NCc4ccc(F)cc4F)c(=O)c(O)c3C(=O)N12 [CAB, cabotegravir]
- fold-change relative to wild type integrase [1]: 2.5 fold
- fold-change relative to wild type integrase [2]: > 840 fold
- subjects with CAB still detectable 52 weeks after the last injection [3]: 14%
- EC50 [4]: > 1000 nM
- half-life [5]: 10.7 days
- EC50 ([6]; HEK293): 1.04 nM
- fold-change relative to wild type integrase ([6]; {}): 0.9 fold
- SHIV RNA copies/ml ([7]; macaque 01D520, day 14): 213778 copies/ml
- SHIV RNA copies/ml ([7]; macaque 01D520, day 16): 25703 copies/ml
- SHIV RNA copies/ml ([7]; macaque 01D520, day 18): 6247 copies/ml
- SHIV RNA copies/ml ([7]; macaque 01D520, day 22): 1187 copies/ml
- SHIV RNA copies/ml ([7]; macaque 01D520, day 25): 478 copies/ml
- SHIV RNA copies/ml ([7]; macaque 01D520, day 29): 2040 copies/ml
- SHIV RNA copies/ml ([7]; macaque 01D520, day 32): 390 copies/ml
- SHIV RNA copies/ml ([7]; macaque 01D520, day 36): 49 copies/ml
- SHIV RNA copies/ml ([7]; macaque 01D520, day 39): 316 copies/ml
- SHIV RNA copies/ml ([7]; macaque 01D520, day 43): 144 copies/ml
- SHIV RNA copies/ml ([7]; macaque 01D520, day 46): 49 copies/ml
- SHIV RNA copies/ml ([7]; macaque 01D520, day 50): 49 copies/ml
- SHIV RNA copies/ml ([7]; macaque 01D520, day 53): 71 copies/ml
- SHIV RNA copies/ml ([7]; macaque 01D520, day 57): 49 copies/ml
- SHIV RNA copies/ml ([7]; macaque 01D520, day 60): 49 copies/ml
- SHIV RNA copies/ml ([7]; macaque 01D520, day 64): 49 copies/ml
- SHIV RNA copies/ml ([7]; macaque 01D520, day 67): 250 copies/ml
- SHIV RNA copies/ml ([7]; macaque 10D181, day 14): 179379 copies/ml
- SHIV RNA copies/ml ([7]; macaque 10D181, day 16): 39172 copies/ml
- SHIV RNA copies/ml ([7]; macaque 10D181, day 18): 9142 copies/ml
- SHIV RNA copies/ml ([7]; macaque 10D181, day 22): 2006 copies/ml
- SHIV RNA copies/ml ([7]; macaque 10D181, day 25): 507 copies/ml
- SHIV RNA copies/ml ([7]; macaque 10D181, day 29): 2459 copies/ml
- SHIV RNA copies/ml ([7]; macaque 10D181, day 32): 444 copies/ml
- SHIV RNA copies/ml ([7]; macaque 10D181, day 36): 906 copies/ml
- SHIV RNA copies/ml ([7]; macaque 10D181, day 39): 1839 copies/ml
- SHIV RNA copies/ml ([7]; macaque 10D181, day 43): 2744 copies/ml
- SHIV RNA copies/ml ([7]; macaque 10D181, day 46): 344 copies/ml
- SHIV RNA copies/ml ([7]; macaque 10D181, day 50): 294 copies/ml
- SHIV RNA copies/ml ([7]; macaque 10D181, day 53): 756 copies/ml
- SHIV RNA copies/ml ([7]; macaque 10D181, day 57): 241 copies/ml
- SHIV RNA copies/ml ([7]; macaque 10D181, day 60): 971 copies/ml
- SHIV RNA copies/ml ([7]; macaque 10D181, day 64): 2139 copies/ml
- SHIV RNA copies/ml ([7]; macaque 33996, day 14): 154663 copies/ml
- SHIV RNA copies/ml ([7]; macaque 33996, day 16): 9000 copies/ml
- SHIV RNA copies/ml ([7]; macaque 33996, day 18): 1964 copies/ml
- SHIV RNA copies/ml ([7]; macaque 33996, day 22): 112 copies/ml
- SHIV RNA copies/ml ([7]; macaque 33996, day 25): 141 copies/ml
- SHIV RNA copies/ml ([7]; macaque 33996, day 29): 25 copies/ml
- SHIV RNA copies/ml ([7]; macaque 33996, day 32): 55 copies/ml
- SHIV RNA copies/ml ([7]; macaque 33996, day 36): 49 copies/ml
- SHIV RNA copies/ml ([7]; macaque 33996, day 39): 49 copies/ml
- SHIV RNA copies/ml ([7]; macaque 33996, day 43): 49 copies/ml
- SHIV RNA copies/ml ([7]; macaque 33996, day 46): 49 copies/ml
- SHIV RNA copies/ml ([7]; macaque 33996, day 50): 49 copies/ml
- SHIV RNA copies/ml ([7]; macaque 33996, day 53): 49 copies/ml
- SHIV RNA copies/ml ([7]; macaque 33996, day 57): 49 copies/ml
- SHIV RNA copies/ml ([7]; macaque 33996, day 60): 14 copies/ml
- SHIV RNA copies/ml ([7]; macaque 33996, day 64): 59 copies/ml
- SHIV RNA copies/ml ([7]; macaque 35451, day 14): 32948 copies/ml
- SHIV RNA copies/ml ([7]; macaque 35451, day 16): 24534 copies/ml
- SHIV RNA copies/ml ([7]; macaque 35451, day 18): 5566 copies/ml
- SHIV RNA copies/ml ([7]; macaque 35451, day 22): 189 copies/ml
- SHIV RNA copies/ml ([7]; macaque 35451, day 25): 365 copies/ml
- SHIV RNA copies/ml ([7]; macaque 35451, day 29): 487 copies/ml
- SHIV RNA copies/ml ([7]; macaque 35451, day 32): 189 copies/ml
- SHIV RNA copies/ml ([7]; macaque 35451, day 36): 262 copies/ml
- SHIV RNA copies/ml ([7]; macaque 35451, day 39): 194 copies/ml
- SHIV RNA copies/ml ([7]; macaque 35451, day 43): 240 copies/ml
- SHIV RNA copies/ml ([7]; macaque 35451, day 46): 77 copies/ml
- SHIV RNA copies/ml ([7]; macaque 35451, day 50): 318 copies/ml
- SHIV RNA copies/ml ([7]; macaque 35451, day 53): 134 copies/ml
- SHIV RNA copies/ml ([7]; macaque 35451, day 57): 132 copies/ml
- SHIV RNA copies/ml ([7]; macaque 35451, day 60): 90 copies/ml
- SHIV RNA copies/ml ([7]; macaque 35451, day 64): 800 copies/ml
- SHIV RNA copies/ml ([7]; macaque 35451, day 67): 104 copies/ml
- SHIV RNA copies/ml ([7]; macaque CH54, day 14): 680147 copies/ml
- SHIV RNA copies/ml ([7]; macaque CH54, day 16): 142531 copies/ml
- SHIV RNA copies/ml ([7]; macaque CH54, day 18): 87386 copies/ml
- SHIV RNA copies/ml ([7]; macaque CH54, day 22): 4318 copies/ml

Reference: article PMC6494879, “Drug resistance emergence in macaques administered cabotegravir long-acting for pre-exposure prophylaxis during acute SHIV infection” (Nature Communications, 2019)
